Reference: US10828305B2 (SHANGHAI PHARMACEUTICALS HOLDING CO., LTD., priority 2016, dated 2020)

Assays:
CYP1A2 = target: T1, CYP1A2 (Homo sapiens, UniProt P05177); experiment: Direct inhibition of CYP1A2, human liver microsome; type: in vitro ADME; conditions: probe phenacetin, read-out: IC50 1A2 (Phenacetin)
T1 construct: from tissue; host or cells: human liver microsomes
T1 sequence (P05177 1-516): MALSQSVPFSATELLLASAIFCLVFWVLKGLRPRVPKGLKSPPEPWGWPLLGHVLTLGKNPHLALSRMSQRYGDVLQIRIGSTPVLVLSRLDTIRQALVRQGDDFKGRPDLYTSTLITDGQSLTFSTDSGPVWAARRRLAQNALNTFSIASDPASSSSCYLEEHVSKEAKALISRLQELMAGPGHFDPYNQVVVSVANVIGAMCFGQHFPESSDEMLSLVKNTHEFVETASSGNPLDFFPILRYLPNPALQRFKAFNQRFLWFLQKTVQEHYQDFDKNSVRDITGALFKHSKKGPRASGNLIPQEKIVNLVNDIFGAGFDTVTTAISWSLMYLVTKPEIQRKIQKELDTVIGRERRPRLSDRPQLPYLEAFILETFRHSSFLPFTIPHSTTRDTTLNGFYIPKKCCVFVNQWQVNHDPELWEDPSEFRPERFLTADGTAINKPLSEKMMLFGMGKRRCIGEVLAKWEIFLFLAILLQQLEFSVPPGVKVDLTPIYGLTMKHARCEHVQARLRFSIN
Description: Research on Direct Inhibition of CYP3A4, CYP2D6, CYP2C9, CYP2C19, CYP1A2
100 μL human liver microsome (with final concentration of 0.2 mg/mL) was used for direct inhibition under warm incubation, the positive control system contained NADPH (with final concentration of 1 mmol/L), a mixture of positive inhibitors (ketoconazole 0.01 to 10 μmol/L, quinidine 0.01 to 10 μmol/L, sulfaphenazole 0.1 to 100 μmol/L, tranylcypromine 1 to 1000 μmot/L, α-naphthoflavone 0.01 to 10 μmol/L), and a substrate mixture (with final concentration of midazolam 10 μmol/L, testosterone 100 μmol/L, dextromethorphan 10 μmol/L, diclofenac 20 μmol/L, S-mephenytoin 50 μmol/L, phenacetin 100 μmol/L), and the reaction was terminated after incubation for 20 min. The positive inhibitor was replaced with 0.1 to 100 μmol/L test compound in the test compound group. The reaction was terminated with acetonitrile containing 0.11 μg/mL internal standard tinidazole (1:3), vortexed for 10 min, centrifuged at 6000×g for 10 min, 50 μL supernatant was taken and put into a 96-well plate for injection.
(§1) In this experiment, IC50 of inhibition of the compound on the enzyme was calculated by measuring relative production of the probe metabolite. The activity of CYP3A4 was simultaneously characterized by two probes of midazolam and testosterone.

CYP2B6 = target: T2, CYP2B6 (Homo sapiens, UniProt P20813); experiment: Direct inhibition of CYP2B6, human liver microsome; type: in vitro ADME; conditions: probe bupropion, read-out: IC50 2B6 (Bupropion)
T2 construct: from tissue; host or cells: human liver microsomes
T2 sequence (P20813 1-491): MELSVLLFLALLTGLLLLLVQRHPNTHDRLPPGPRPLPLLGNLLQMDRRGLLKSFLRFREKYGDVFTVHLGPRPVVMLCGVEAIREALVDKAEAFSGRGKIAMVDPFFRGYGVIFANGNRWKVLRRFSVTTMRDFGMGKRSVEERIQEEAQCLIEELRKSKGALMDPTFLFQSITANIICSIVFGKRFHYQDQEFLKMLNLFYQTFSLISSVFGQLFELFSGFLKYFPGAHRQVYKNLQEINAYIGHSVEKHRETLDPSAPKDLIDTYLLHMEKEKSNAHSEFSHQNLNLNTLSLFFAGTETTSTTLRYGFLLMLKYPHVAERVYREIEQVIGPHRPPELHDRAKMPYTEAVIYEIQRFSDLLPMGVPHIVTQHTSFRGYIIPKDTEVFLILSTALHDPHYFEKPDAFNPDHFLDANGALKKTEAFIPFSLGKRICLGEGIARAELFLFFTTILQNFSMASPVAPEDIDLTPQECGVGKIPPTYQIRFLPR
Description: (§2) Research on Direct Inhibition of CYP2B6 and CYP2C8
(§3) 100 μL human liver microsome (with final concentration of 0.2 mg/mL) was used for direct inhibition under warm incubation. The positive control system contained NADPH (with final concentration of 1 mmol/L), a mixture of positive inhibitors (ketoconazole 0.05 to 50 μmol/L, montelukast sodium 0.001 to 1 μmol/L), and a substrate mixture (with final concentration of amfepramone 50 μmol/L and paclitaxel 5 μmol/L), and the reaction was terminated after incubation for 20 min. The positive inhibitor was replaced with 0.1 to 100 μmol/L test compound in the test compound group. The reaction was terminated with acetonitrile containing […] internal standard tinidazole (1:3), vortexed for 10 min, centrifuged at 6000×g for 10 min, and 50 μL supernatant was taken and put into a 96-well plate for injection.
as §1

CYP2C8 = target: T3, CYP2C8 (Homo sapiens, UniProt P10632); experiment: Direct inhibition of CYP2C8, human liver microsome; type: in vitro ADME; conditions: probe paclitaxel, read-out: IC50 2C8 (Paclitaxel)
T3 construct: from tissue; host or cells: human liver microsomes
T3 sequence (P10632 1-490): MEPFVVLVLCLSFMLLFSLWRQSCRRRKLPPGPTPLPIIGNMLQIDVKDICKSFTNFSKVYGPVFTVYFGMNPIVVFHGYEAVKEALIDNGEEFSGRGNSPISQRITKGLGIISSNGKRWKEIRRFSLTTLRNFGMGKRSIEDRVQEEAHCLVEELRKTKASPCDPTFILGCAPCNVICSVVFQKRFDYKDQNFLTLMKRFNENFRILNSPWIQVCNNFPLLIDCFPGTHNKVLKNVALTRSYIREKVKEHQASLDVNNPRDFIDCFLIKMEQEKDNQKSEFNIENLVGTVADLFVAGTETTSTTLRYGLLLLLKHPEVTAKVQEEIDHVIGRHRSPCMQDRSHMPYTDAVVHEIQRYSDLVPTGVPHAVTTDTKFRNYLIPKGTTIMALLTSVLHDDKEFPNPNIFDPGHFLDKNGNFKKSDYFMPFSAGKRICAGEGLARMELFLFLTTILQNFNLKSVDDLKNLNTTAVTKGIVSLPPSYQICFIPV
Description: as §2, §3, §1

[1] = tested on: human gastric cancer NCI-N87 xenograft; experiment: HER2 overexpressing human gastric cancer NCI-N87 xenograft model in nude mice; type: in vivo, Balb/c nude mice; conditions: oral, 22 days

Compound | IC50 (CYP1A2) | IC50 (CYP2B6) | IC50 (CYP2C8) | tumor volume inhibition rate (GI %) ([1]; 50MPK) | tumor volume inhibition rate (GI %) ([1]; 100MPK)
Cc1cc(Nc2ncnc3ccc(NC4=NC(C)(C)CO4)cc23)ccc1Oc1ccn2ncnc2c1 [ARRY-380, reference compound] | 94 µM | > 100 µM | 3 µM | 59.5% | 
Cc1cc(Nc2ncnc3ccc(NC4=NC(C)(C)CO4)cc23)ccc1Oc1cc2nncn2cn1 [Embodiment 4, N^4-(4-([1,2,4]triazolo[4,3-c]pyrimidin-7-yloxy)-3-methylphenyl)-N^6-(4,4-dimethyl-4,5-dihydrooxazol-2-yl)quinazoline-4,6-diamine] | 34 µM | > 100 µM | 15 µM | 84.3% | 117.9%
